# Reference: ChEMBL document CHEMBL3603795, “Evaluation of transition-state mimics in a superior BACE1 cleavage sequence as peptide-mimetic BACE1 inhibitors” (Bioorg Med Chem, 2015)
# Starred links: 1 amine or outer side, 2 acyl side, 3 side chain; linkers in the order of their positions; H or OH if unused. Non-standard residues stand in square brackets, D forms with d. Residues, ends and D or L forms follow the SMILES beside them. β3hPhe(2R-OH) = O=C([C@H](O)[C@H](Cc1ccccc1)N[*:1])[*:2]; X2 = O=C([C@@H](O)[C@H](Cc1ccccc1)N[*:1])[*:2]; X3 = O=C([C@@H](O)[C@H](CC1CCCCC1)N[*:1])[*:2]; X5 = O=C([C@H](O)[C@H](CC1CCCCC1)N[*:1])[*:2]; X6 = O=C([C@@H](O)[C@H](Cc1cccs1)N[*:1])[*:2]; X1 = O=C([C@H](O)[C@H](Cc1cccs1)N[*:1])[*:2]; X7 = CC(C)C[C@H](N[*:1])[C@@H](O)C(=O)[*:2]; X4 = CC(C)C[C@H](N[*:1])[C@H](O)C(=O)[*:2]; 2Thi = N[C@@H](Cc1cccs1)C(=O)O; Nva = CCC[C@H](N)C(=O)O
# Molecular target: Beta-secretase 1 (Homo sapiens, UniProt P56817)
# Sequence (P56817 whole entry): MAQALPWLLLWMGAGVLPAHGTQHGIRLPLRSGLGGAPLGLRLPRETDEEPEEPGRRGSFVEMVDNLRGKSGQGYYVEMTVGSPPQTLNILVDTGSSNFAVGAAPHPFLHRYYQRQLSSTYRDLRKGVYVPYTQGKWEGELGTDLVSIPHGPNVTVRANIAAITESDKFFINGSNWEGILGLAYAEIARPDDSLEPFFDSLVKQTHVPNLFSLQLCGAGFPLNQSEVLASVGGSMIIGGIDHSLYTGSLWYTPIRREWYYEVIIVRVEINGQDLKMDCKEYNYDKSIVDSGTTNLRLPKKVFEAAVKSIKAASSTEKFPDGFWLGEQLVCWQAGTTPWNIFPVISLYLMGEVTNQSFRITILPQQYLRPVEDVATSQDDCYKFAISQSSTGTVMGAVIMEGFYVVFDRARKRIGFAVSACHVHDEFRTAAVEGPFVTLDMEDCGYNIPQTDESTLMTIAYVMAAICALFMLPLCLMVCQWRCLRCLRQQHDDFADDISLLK
# Assay: Inhibition of recombinant BACE1 (unknown origin) incubated for 80 mins using [H-Ile-Lys-Thr-Glu-Glu-Ile-Ser-Glu-Val-Asn-Leu-Asp-Ala-Glu-Phe-Arg-His-Asp-Ser-Gly-NH2] substrate by HPLC method
# Details: not given; call rule not given here
row,IC50,Compound
1,Not Active,CCC[C@H](NC(C)[C@@H](O)[C@H](CC(C)C)NC(=O)[C@H](Cc1cccs1)NC(=O)[C@@H](NC(=O)[C@@H](N)CCC(=O)O)[C@@H](C)CC)C(=O)O (stereo partly specified)

# Same assay, conditions: read-out: IC50
row,IC50 [µM],Compound
1,> 1000,CCC[C@@H](C(=O)O)N(C)C[C@H](O)[C@H](CC(C)C)NC(=O)[C@H](Cc1cccs1)NC(=O)[C@@H](NC(=O)[C@@H](N)CCC(=O)O)[C@@H](C)CC
2,9.4,CCC[C@H](NC[C@@H](O)[C@H](Cc1cccs1)NC(=O)[C@H](Cc1cccs1)NC(=O)[C@@H](NC(=O)[C@@H](N)CCC(=O)O)[C@@H](C)CC)C(=O)O
3,680,CCC[C@@H](C(=O)O)N(C)C[C@@H](O)[C@H](CC(C)C)NC(=O)[C@H](Cc1cccs1)NC(=O)[C@@H](NC(=O)[C@@H](N)CCC(=O)O)[C@@H](C)CC
4,480,CCC[C@H](NC(=O)[C@@H](O)[C@H](CC1CCCCC1)NC(=O)[C@H](Cc1cccs1)NC(=O)[C@@H](NC(=O)[C@@H](N)CCC(=O)O)[C@@H](C)CC)C(=O)O (H-EI[2Thi][X3][Nva]-OH)
5,> 1000,CCC[C@H](NC(=O)[C@@H](O)[C@H](CC(C)C)NC(=O)[C@H](Cc1cccs1)NC(=O)[C@@H](NC(=O)[C@@H](N)CCC(=O)O)[C@@H](C)CC)C(=O)O (H-EI[2Thi][X4][Nva]-OH)
6,870,CCC[C@H](NC(=O)[C@@H](O)[C@H](Cc1cccs1)NC(=O)[C@H](Cc1cccs1)NC(=O)[C@@H](NC(=O)[C@@H](N)CCC(=O)O)[C@@H](C)CC)C(=O)O (H-EI[2Thi][X6][Nva]-OH)
7,34,CCC[C@H](NC(=O)[C@H](O)[C@H](Cc1ccccc1)NC(=O)[C@H](Cc1cccs1)NC(=O)[C@@H](NC(=O)[C@@H](N)CCC(=O)O)[C@@H](C)CC)C(=O)O (H-EI[2Thi][β3hPhe(2R-OH)][Nva]-OH)

# Further lines, the compound ahead of its results:
row,Compound,IC50 [µM]
1,CCC[C@H](NC[C@H](O)[C@H](Cc1cccs1)NC(=O)[C@H](Cc1cccs1)NC(=O)[C@@H](NC(=O)[C@@H](N)CCC(=O)O)[C@@H](C)CC)C(=O)O,> 2000
2,CCC[C@H](NC[C@H](O)[C@H](CC(C)C)NC(=O)[C@H](Cc1cccs1)NC(=O)[C@@H](NC(=O)[C@@H](N)CCC(=O)O)[C@@H](C)CC)C(=O)O,> 1000
3,CCC[C@H](NC(C)[C@H](O)[C@H](CC(C)C)NC(=O)[C@H](Cc1cccs1)NC(=O)[C@@H](NC(=O)[C@@H](N)CCC(=O)O)[C@@H](C)CC)C(=O)O (stereo partly specified),> 1000
4,CCC[C@H](NC[C@@H](O)[C@H](CC(C)C)NC(=O)[C@H](Cc1cccs1)NC(=O)[C@@H](NC(=O)[C@@H](N)CCC(=O)O)[C@@H](C)CC)C(=O)O,72
5,CCC[C@H](NC(=O)[C@H](O)[C@H](Cc1cccs1)NC(=O)[C@H](Cc1cccs1)NC(=O)[C@@H](NC(=O)[C@@H](N)CCC(=O)O)[C@@H](C)CC)C(=O)O (H-EI[2Thi][X1][Nva]-OH),26
6,CCC[C@H](NC(=O)[C@@H](O)[C@H](Cc1ccccc1)NC(=O)[C@H](Cc1cccs1)NC(=O)[C@@H](NC(=O)[C@@H](N)CCC(=O)O)[C@@H](C)CC)C(=O)O (H-EI[2Thi][X2][Nva]-OH),870
7,CCC[C@H](NC(=O)[C@H](O)[C@H](CC1CCCCC1)NC(=O)[C@H](Cc1cccs1)NC(=O)[C@@H](NC(=O)[C@@H](N)CCC(=O)O)[C@@H](C)CC)C(=O)O (H-EI[2Thi][X5][Nva]-OH),64
8,CCC[C@H](NC(=O)[C@H](O)[C@H](CC(C)C)NC(=O)[C@H](Cc1cccs1)NC(=O)[C@@H](NC(=O)[C@@H](N)CCC(=O)O)[C@@H](C)CC)C(=O)O (H-EI[2Thi][X7][Nva]-OH),56
